The test system of data set [1] is A549 cells. The data set is described as follows: EC50 experiments, dose response of cell viability (PrestoBlue). In kind it is cell-based. The conditions noted are these: 3 days of treatment, prodrug versus its deprotected counterpart (gemcitabine). How it is done: A549 cells were seeded in 96-well plates at a cell concentration of 2,000 cells/well and incubated overnight before treatment. Each well was then replaced with 100 µL of fresh F-12K medium containing protected gemcitabine (concentration ranging from 10^4 µM to 10^-4 µM) and DMSO (2% v/v), control wells were replaced with 100 µL of fresh F-12K medium and DMSO (2% v/v). Control and treated plates were incubated for 72 h before PrestoBlue cell viability reagent (10% v/v) was added to each well and the plate incubated for 2 h. Fluorescence emission was measured using a microplate reader (Tecan; ex: 540 nm; em: 590 nm).
Dose-response experiments were performed in order to determine the half maximal effective concentration (EC50) of both the drug as well as the prodrug.

Data set [2] concerns A549 cells. The data set can be described thus: Extracellular prodrug activation, viability assay (PrestoBlue). In kind it is cell-based. The settings on record: 0.05 µM; for viability: 3 days. How it is done: A549 cells were seeded in 96-well plates at a cell concentration of 4,000 cells/well and incubated overnight before treatment. Each well was then replaced with 100 µL of fresh F-12K medium containing protected gemcitabine (0.05 µM) and DMSO (2% v/v), control wells were replaced with 100 µL of fresh F-12K medium and DMSO (2% v/v). Plates were incubated for 1 h before 10 µL of a platinum nanoparticles solution (50 ppm, 3 nm diameter) was added to each well and 10 µL of water was added to control wells. Plates were incubated for 1 h before placing them in a custom-designed gas chamber. Control plates were left untouched in the incubator. The chamber was placed in the incubator, connected to a gas bottle outside the incubator and to an outlet. The gas chamber was flushed for 1 min with hydrogen gas at 1 bar and closed. Plates were incubated 2 h in the gas chamber before placing them back in the incubator with the control plates. Control and treated plates were incubated for 72 h before PrestoBlue cell viability reagent (10% v/v) was added to each well and the plate incubated for 2 h. Fluorescence emission was measured using a microplate reader (Tecan; ex: 540 nm; em: 590 nm).
This could be due to a constitutively occurring slow reduction of the nitro group by the cells. […] Although this would require further investigations, it could be a consequence of the increased lipophilicity of the protected drug thereby conferring an increased uptake of the drug with respect to its deprotected counterpart.

In another data set the test system is mammalian cells. The settings on record: in vitro test on mammalian cells; cited from earlier work.

As to `O=C(Nc1ccn([C@@H]2O[C@H](CO)[C@@H](O)C2(F)F)c(=O)n1)OCc1ccc([N+](=O)[O-])cc1` [gemcitabine prodrug, p-Nitrobenzyloxycarbonyl Gemcitabine], the “difference of EC50 values of drug and prodrug” value in the data set with A549 cells [1] is “about 5 orders of magnitude”. The viability entry is on record as “slightly lower viability than the positive control with gemcitabine” in the data set with A549 cells [2] (both hydrogen and platinum present, compared with positive control gemcitabine); “A small decrease” with A549 cells [2] (the 3 conditions where either hydrogen and/or platinum is missing). Moreover, the “activity of the drug” value in the data set with A549 cells [2] (Fig. 7 and Fig. 8, 3 days, 5 ppm or 10 ppm platinum nanoparticles, four conditions with/without hydrogen and catalyst) was “only recovered if both the hydrogen and the platinum nanoparticles are present”.
For `Cc1ccc(N)cc1` [p-toluidine], the mutagenic / genotoxic result with mammalian cells is given as “neither mutagenic nor genotoxic”.

The values above are taken from patent EP3415523A1, “COMBINATION MEDICAMENT COMPRISING A PRODRUG AND INHALABLE CATALYST” (priority 2017, dated 2018).
